These results are taken from US11358949B2, “Carbamate and urea compounds as multikinase inhibitors” (ANGEX PHARMACEUTICAL, INC., priority 2017, dated 2022).

Broadly, the IC50 is the concentration needed to halve the response being measured.

The target of one test is FMS (Homo sapiens, UniProt P07333). Put plainly: HotSpot Kinase Assay, FMS.
Another test deals with KDR/VEGFR2 (Homo sapiens, UniProt P35968). Put plainly: HotSpot Kinase Assay, KDR/VEGFR2.
In another test the target is T1, AXL (Homo sapiens, UniProt P30530).
T1 sequence (P30530 26-894): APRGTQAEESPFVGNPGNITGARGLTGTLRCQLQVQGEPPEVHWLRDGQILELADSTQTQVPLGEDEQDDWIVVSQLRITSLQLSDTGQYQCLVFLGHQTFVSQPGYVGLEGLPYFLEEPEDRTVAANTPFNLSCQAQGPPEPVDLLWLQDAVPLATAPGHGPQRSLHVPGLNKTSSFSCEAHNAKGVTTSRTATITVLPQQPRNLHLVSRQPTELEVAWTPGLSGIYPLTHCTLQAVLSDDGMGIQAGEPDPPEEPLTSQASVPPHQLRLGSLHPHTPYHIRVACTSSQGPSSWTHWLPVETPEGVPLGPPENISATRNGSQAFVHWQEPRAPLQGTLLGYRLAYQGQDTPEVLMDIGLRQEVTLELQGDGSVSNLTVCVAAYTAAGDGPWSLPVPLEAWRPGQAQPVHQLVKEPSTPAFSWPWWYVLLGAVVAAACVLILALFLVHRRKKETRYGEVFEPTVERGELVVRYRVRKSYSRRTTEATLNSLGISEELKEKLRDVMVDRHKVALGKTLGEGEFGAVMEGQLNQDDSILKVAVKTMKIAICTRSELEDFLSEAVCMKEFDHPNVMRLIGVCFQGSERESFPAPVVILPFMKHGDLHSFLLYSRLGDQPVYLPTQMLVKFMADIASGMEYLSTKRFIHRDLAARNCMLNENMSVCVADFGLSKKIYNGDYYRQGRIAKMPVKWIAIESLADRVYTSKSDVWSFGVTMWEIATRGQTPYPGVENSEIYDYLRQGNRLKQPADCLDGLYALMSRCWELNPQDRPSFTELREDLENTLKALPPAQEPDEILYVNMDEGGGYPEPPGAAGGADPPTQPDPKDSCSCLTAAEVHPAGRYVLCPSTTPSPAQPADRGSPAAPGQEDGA
Put plainly: HotSpot Kinase Assay, AXL.

A further test addresses c-Kit (Homo sapiens, UniProt P10721). Put plainly: HotSpot Kinase Assay, c-Kit.
In a further test the target is c-MET (Homo sapiens, UniProt P08581). Put plainly: HotSpot Kinase Assay, c-MET.
For another test, the target named is T2, TYRO3/SKY (Homo sapiens, UniProt Q06418).
T2 sequence (Q06418 41-890): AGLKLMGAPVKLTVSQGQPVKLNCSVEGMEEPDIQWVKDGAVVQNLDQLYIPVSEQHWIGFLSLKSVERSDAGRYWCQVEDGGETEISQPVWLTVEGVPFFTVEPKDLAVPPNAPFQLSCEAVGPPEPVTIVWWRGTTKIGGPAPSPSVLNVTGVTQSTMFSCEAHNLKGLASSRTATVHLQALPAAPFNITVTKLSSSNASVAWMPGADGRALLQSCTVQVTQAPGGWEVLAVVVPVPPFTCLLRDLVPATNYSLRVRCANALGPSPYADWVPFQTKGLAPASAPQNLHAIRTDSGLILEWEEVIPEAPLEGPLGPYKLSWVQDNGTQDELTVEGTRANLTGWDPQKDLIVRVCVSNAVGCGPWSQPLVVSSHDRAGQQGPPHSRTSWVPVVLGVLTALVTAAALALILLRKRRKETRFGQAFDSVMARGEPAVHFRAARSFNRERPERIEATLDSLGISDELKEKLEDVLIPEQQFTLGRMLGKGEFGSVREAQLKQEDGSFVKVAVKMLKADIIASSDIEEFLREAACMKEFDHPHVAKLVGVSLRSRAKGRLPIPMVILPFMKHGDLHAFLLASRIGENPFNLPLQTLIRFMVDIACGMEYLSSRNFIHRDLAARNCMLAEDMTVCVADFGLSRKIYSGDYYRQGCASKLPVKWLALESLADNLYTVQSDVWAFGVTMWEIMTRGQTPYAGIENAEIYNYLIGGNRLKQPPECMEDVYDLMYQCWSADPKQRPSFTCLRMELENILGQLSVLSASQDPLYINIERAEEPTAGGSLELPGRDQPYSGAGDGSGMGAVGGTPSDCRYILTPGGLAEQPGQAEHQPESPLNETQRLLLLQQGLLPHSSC
Put plainly: HotSpot Kinase Assay, TYRO3/SKY.

The target of another test is DDR1 (Homo sapiens, UniProt Q08345). Put plainly: HotSpot Kinase Assay, DDR1.
In the next test the target is T3, c-MER (Homo sapiens, UniProt Q12866).
T3 sequence (Q12866 21-999): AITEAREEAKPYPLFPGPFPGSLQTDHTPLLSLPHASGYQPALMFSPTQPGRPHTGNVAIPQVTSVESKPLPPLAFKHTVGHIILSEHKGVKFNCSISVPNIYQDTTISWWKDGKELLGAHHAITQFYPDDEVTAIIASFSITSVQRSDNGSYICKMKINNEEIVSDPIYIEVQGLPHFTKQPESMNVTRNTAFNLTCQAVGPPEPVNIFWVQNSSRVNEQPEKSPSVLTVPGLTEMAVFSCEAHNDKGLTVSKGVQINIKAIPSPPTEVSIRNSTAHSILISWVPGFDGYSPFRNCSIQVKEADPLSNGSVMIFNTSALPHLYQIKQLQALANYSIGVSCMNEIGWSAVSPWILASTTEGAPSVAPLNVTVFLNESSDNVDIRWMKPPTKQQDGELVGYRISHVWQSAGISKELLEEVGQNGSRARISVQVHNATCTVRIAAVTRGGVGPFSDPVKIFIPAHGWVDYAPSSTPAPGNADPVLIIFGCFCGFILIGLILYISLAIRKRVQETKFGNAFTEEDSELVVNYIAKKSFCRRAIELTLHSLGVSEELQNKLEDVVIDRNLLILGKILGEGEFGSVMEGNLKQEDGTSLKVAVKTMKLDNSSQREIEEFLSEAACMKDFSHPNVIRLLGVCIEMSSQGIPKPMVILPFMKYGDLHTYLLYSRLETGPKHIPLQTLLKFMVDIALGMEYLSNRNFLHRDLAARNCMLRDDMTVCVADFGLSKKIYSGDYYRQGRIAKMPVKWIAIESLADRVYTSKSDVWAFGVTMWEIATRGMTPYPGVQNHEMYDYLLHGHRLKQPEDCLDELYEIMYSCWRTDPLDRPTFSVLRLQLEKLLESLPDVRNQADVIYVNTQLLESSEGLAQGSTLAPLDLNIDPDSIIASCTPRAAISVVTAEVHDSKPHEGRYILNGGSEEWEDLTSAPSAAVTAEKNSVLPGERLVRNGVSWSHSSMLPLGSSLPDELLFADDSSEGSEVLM
Put plainly: HotSpot Kinase Assay, c-MER.

The target of the next test is LOK/STK10 (Homo sapiens, UniProt O94804). Put plainly: HotSpot Kinase Assay, LOK/STK10.
The next test deals with EPHA2 (Homo sapiens, UniProt P29317). Put plainly: HotSpot Kinase Assay, EPHA2.

A value given as a limit tells only on which side of the number the result lay.

Sequence of c-MET (P08581 25-1390): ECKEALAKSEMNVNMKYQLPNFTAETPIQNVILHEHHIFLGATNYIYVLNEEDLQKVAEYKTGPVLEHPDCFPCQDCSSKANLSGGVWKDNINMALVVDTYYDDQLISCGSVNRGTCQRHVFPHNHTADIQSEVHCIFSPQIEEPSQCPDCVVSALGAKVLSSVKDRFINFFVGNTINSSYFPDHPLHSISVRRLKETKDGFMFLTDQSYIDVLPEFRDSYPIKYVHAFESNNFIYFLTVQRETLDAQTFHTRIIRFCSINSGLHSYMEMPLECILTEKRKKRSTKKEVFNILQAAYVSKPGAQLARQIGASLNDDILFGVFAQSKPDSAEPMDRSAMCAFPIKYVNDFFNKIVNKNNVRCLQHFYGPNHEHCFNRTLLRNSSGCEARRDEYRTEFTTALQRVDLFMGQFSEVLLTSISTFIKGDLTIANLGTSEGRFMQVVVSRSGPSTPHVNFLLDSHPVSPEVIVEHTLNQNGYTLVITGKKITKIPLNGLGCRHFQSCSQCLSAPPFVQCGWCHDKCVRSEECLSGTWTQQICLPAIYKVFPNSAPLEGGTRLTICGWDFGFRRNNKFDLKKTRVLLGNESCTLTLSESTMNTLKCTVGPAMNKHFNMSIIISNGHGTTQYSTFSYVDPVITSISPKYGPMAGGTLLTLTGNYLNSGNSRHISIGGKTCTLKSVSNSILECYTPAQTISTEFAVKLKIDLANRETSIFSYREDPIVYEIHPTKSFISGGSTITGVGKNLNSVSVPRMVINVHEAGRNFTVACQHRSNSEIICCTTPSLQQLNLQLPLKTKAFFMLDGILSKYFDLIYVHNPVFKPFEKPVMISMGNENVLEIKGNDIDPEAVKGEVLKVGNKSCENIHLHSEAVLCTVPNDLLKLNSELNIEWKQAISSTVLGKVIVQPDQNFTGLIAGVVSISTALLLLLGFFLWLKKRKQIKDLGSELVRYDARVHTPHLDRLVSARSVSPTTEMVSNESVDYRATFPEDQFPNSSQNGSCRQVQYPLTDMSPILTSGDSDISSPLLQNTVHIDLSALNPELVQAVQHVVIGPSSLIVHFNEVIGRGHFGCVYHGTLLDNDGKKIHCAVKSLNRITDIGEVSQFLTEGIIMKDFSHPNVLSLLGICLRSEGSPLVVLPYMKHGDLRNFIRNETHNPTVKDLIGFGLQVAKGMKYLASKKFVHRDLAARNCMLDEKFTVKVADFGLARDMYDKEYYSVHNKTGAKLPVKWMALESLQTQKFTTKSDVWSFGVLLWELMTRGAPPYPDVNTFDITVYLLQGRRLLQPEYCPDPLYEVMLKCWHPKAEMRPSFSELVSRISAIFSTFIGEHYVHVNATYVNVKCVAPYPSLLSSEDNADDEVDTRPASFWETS
Sequence of KDR/VEGFR2 (P35968 20-1356): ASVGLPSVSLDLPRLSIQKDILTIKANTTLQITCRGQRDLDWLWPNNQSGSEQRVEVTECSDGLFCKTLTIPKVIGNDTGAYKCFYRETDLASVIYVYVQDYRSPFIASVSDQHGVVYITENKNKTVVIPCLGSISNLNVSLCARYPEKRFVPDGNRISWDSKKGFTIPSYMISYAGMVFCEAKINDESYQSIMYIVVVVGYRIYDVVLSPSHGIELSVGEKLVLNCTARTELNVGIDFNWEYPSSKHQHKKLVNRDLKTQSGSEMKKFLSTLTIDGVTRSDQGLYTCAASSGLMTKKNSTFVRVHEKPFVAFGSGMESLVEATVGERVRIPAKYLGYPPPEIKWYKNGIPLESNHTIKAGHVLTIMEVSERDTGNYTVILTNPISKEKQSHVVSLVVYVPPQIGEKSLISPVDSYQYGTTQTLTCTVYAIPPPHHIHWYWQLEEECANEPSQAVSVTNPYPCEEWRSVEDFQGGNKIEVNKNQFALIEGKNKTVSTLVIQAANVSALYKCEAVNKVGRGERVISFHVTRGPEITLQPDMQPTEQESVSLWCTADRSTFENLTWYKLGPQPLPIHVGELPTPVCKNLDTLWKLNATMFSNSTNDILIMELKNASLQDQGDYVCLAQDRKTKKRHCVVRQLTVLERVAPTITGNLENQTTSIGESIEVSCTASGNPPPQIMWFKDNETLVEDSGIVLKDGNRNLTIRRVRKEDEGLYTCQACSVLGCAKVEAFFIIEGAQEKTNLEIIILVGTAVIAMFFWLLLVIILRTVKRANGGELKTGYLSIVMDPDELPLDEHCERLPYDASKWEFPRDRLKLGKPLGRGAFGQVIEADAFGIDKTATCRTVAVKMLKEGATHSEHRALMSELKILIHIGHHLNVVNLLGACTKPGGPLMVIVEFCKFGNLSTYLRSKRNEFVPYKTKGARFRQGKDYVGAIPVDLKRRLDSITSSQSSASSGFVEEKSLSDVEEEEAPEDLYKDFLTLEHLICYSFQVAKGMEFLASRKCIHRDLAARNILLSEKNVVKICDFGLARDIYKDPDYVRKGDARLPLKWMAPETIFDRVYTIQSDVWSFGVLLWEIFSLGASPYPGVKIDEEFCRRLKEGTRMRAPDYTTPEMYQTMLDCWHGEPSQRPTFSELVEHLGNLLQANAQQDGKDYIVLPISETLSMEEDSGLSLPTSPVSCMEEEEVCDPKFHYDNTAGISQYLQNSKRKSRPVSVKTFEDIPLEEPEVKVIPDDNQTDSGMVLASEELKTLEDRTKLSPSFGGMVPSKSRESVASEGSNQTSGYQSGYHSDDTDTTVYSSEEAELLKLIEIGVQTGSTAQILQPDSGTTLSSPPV
Sequence of FMS (P07333 20-972): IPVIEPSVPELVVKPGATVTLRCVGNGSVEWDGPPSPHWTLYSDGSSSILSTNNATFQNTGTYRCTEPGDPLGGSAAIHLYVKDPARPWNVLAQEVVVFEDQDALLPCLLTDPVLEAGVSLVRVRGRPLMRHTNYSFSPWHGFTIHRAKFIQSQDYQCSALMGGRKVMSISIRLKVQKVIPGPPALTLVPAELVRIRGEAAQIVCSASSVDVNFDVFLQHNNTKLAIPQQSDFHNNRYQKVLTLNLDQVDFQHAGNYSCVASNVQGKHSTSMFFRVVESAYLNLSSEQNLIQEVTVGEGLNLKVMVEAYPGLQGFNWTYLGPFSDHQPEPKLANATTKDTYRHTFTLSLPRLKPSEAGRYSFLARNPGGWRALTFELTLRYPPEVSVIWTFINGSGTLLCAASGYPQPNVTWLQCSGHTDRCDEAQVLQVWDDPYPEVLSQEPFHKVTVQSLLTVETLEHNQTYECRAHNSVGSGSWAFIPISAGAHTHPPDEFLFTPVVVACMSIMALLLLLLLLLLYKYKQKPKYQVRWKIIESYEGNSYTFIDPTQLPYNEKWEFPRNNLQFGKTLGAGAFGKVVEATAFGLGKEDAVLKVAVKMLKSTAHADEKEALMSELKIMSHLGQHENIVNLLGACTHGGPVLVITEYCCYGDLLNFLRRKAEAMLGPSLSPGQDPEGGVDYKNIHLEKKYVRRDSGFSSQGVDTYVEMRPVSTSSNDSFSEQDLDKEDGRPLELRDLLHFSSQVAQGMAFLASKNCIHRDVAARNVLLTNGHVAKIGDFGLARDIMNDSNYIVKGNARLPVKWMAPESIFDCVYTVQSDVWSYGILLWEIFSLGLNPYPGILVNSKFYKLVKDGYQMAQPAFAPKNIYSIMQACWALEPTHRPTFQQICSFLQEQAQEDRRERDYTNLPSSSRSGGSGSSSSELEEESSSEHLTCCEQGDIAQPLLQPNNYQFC
Sequence of DDR1 (Q08345 19-913): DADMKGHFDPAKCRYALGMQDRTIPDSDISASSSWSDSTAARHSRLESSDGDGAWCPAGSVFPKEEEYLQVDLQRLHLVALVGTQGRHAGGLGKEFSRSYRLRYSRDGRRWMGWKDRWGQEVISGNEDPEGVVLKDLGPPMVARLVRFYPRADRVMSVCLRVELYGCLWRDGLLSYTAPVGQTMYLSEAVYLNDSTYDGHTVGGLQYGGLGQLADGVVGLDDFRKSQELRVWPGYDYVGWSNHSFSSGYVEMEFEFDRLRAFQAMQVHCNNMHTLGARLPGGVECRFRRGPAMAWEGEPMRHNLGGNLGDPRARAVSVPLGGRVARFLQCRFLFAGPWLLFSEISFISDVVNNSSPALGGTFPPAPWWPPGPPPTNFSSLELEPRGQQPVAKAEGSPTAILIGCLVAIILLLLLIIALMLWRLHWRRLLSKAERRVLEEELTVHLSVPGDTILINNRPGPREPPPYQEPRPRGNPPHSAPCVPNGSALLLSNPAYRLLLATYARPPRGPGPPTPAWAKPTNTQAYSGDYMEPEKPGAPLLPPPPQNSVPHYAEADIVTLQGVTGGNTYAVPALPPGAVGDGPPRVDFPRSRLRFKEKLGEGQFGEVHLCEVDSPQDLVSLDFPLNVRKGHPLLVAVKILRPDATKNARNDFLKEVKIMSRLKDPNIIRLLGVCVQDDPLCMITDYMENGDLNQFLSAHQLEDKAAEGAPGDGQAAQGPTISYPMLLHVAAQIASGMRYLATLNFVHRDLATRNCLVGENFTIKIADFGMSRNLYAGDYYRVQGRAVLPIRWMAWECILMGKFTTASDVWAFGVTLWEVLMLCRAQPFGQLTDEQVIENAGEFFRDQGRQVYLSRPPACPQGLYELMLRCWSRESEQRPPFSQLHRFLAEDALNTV
Method for AXL: (§1) Specifically, for each reaction, kinase and substrate were mixed in a pH 7.5 buffer containing 20 mM HEPES, 10 mM MgCl2, 1 mM EGTA [Ethylene glycol-bis(2-aminoethylether)-N,N,N′,N′-tetraacetic acid], 0.02% Brij35, 0.02 mg/mL BSA (Bovine Serum Albumin), 0.1 mM Na3VO4, 2 mM DTT, and 1% DMSO. Compounds were then added to each reaction mixture. After a 20-min incubation, ATP (Sigma-Aldrich) and [γ-^33P] ATP (PerkinElmer) were added at a final total concentration of 100 μM. Reactions were carried out at room temperature for 2 hours and spotted onto P81 ion exchange cellulose chromatography paper (Whatman). […] The percent remaining kinase activity relative to a vehicle-containing (DMSO) kinase reaction was calculated for each kinase/inhibitor pair. […] IC50 values were calculated using Prism 5 (GraphPad).
Method for EPHA2: as §1
Method for KDR/VEGFR2: as §1
Method for LOK/STK10: as §1
Method for c-MER: as §1
Method for c-MET: as §1

Turning to `COc1cc2c(Oc3ccc(NC(=O)C4(C(=O)Nc5ccc(F)cc5)CC4)cc3F)ccnc2cc1OC(=O)N1CCN(C)C[C@@H]1C` [Compound 3-6], the IC50 is 100 to 1000 nM against FMS; 100 to 1000 nM at KDR/VEGFR2; below 100 nM against AXL; 100 to 1000 nM on c-Kit; below 100 nM on c-MET; 100 to 1000 nM at TYRO3/SKY. In addition, the IC50 was below 100 nM against DDR1, below 100 nM against c-MER, 100 to 1000 nM against LOK/STK10 and below 100 nM on EPHA2.

Regarding `COc1cc2c(Oc3ccc(NC(=O)C4(C(=O)Nc5ccc(F)cc5)CC4)cc3)ccnc2cc1OC(=O)N1CCN(C)C[C@H]1C` [Compound 1-11, 4-(4-(1-((4-fluorophenyl)carbamoyl)cyclopropane-1-carboxamido)phenoxy)-6-methoxyquinolin-7-yl (R)-2,4-dimethylpiperazine-1-carboxylate], the IC50 was below 100 nM against FMS; above 1000 nM at KDR/VEGFR2; below 100 nM against AXL; below 100 nM against c-Kit; below 100 nM against c-MET; 100 to 1000 nM at TYRO3/SKY. Further, the IC50 was below 100 nM at DDR1, below 100 nM against c-MER, 100 to 1000 nM against LOK/STK10 and 100 to 1000 nM against EPHA2.

`COc1cc2c(Oc3ccc(NC(=O)C4(C(=O)Nc5ccc(F)cc5)CC4)cc3)ccnc2cc1OC(=O)N(C)C` [Compound 1-15]: the IC50 against FMS was 100 to 1000 nM; at KDR/VEGFR2 it was above 1000 nM; against AXL it was 100 to 1000 nM; at c-Kit, 100 to 1000 nM; at c-MET it was 100 to 1000 nM; against TYRO3/SKY, above 1000 nM. Also, the IC50 against DDR1 was below 100 nM; on c-MER, 100 to 1000 nM; at LOK/STK10, 100 to 1000 nM; on EPHA2, above 1000 nM.

As to `COc1cc2nccc(Oc3ccc(NC(=O)C4(C(=O)Nc5ccc(F)cc5)CC4)cc3)c2cc1OC(=O)N1CCNC[C@H]1C` [Compound 7-2], the IC50 against FMS, at KDR/VEGFR2, on AXL, on c-Kit, at c-MET and at TYRO3/SKY was below 100 nM in each case. Besides, the IC50 against DDR1, against c-MER, on LOK/STK10 and at EPHA2 was below 100 nM in each case.

With `COc1cc2c(Oc3ccc(NC(=O)C4(C(=O)Nc5ccc(F)cc5)CC4)cc3)ncnc2cc1OC(=O)N1CCN(C)C[C@H]1C` [Compound 8-6, 4-(4-(1-((4-fluorophenyl)carbamoyl)cyclopropane-1-carboxamido)phenoxy)-6-methoxyquinazolin-7-yl (R)-2,4-methylpiperazine-1-carboxylate], the IC50 at FMS was 100 to 1000 nM; on KDR/VEGFR2, above 1000 nM; against AXL, 100 to 1000 nM; against c-Kit, 100 to 1000 nM; against c-MET, 100 to 1000 nM; against TYRO3/SKY, 100 to 1000 nM. The IC50 against DDR1 was below 100 nM; against c-MER, 100 to 1000 nM; against LOK/STK10, above 1000 nM; against EPHA2, above 1000 nM.

`COc1cc2c(Oc3ccc(NC(=O)C4(C(=O)Nc5ccc(F)cc5)CC4)cc3)ccnc2cc1OC(=O)N1C[C@H]2C[C@@H]1CN2C` [Compound 2-6]: the IC50 at FMS is below 100 nM; on KDR/VEGFR2, 100 to 1000 nM; against AXL it was below 100 nM; on c-Kit, below 100 nM; at c-MET, below 100 nM; against TYRO3/SKY, 100 to 1000 nM. The IC50 was below 100 nM on DDR1, below 100 nM at c-MER, 100 to 1000 nM at LOK/STK10 and below 100 nM on EPHA2.

For `COc1cc2c(Oc3ccc(NC(=O)C4(C(=O)Nc5ccc(F)cc5)CC4)cc3)ccnc2cc1OC(=O)N1CC[C@H](O)C1` [Compound 2-5], the IC50 is 100 to 1000 nM against FMS; above 1000 nM against KDR/VEGFR2; below 100 nM against AXL; below 100 nM against c-Kit; below 100 nM at c-MET; above 1000 nM against TYRO3/SKY. Besides, the IC50 is below 100 nM against DDR1, below 100 nM against c-MER, 100 to 1000 nM on LOK/STK10 and 100 to 1000 nM on EPHA2.

With `COc1cc2nccc(Oc3ccc(NC(=O)C4(C(=O)Nc5ccc(F)cc5)CC4)cc3)c2cc1OC(=O)N1CCNCC1(C)C` [Compound 7-6], the IC50 against FMS was 100 to 1000 nM; at KDR/VEGFR2, below 100 nM; at AXL, below 100 nM; against c-Kit, below 100 nM; against c-MET, below 100 nM; against TYRO3/SKY, below 100 nM. In addition, the IC50 against DDR1 is below 100 nM; against c-MER, below 100 nM; against LOK/STK10, 100 to 1000 nM; against EPHA2, 100 to 1000 nM.

For the molecule `COc1cc2c(Oc3ccc(NC(=O)C4(C(=O)Nc5ccc(F)cc5)CC4)cc3)ccnc2cc1OC(=O)N1CCN(C)CC1(C)C` [Compound 6-6], the IC50 against FMS is 100 to 1000 nM; against KDR/VEGFR2 it was 100 to 1000 nM; against AXL, below 100 nM; on c-Kit it was below 100 nM; at c-MET, 100 to 1000 nM; against TYRO3/SKY, 100 to 1000 nM. The IC50 on DDR1 is below 100 nM; against c-MER it was below 100 nM; against LOK/STK10, 100 to 1000 nM; on EPHA2, 100 to 1000 nM.
